Experimental data as given in US9867869B2, “Insulin derivatives for diabetes treatment” (Massachusetts Institute of Technology, priority 2012, dated 2018).
Each block holds one compound with its values, some of them ahead of it.

Experiments:
[1] = 11B NMR complexation efficiency with 4-carboxyphenylboronic acid; type: physicochemical; details: PBS 0.1M, 37° C.
Description: ^11B NMR spectra were recorded on a VARIAN Inova-500 spectrometer operated at 160.3 MHz with gXH switchable broadband probe installed. Samples at a concentration of 10 mM were transferred to a 5 mm Norell natural quartz NMR tube (Sigma-Aldrich). Diols and 4-carboxyphenylboronic acids were co-dissolved in phosphate buffer, 0.1 M at pH 7.4 or 8.5 and tested at 37° C.
PBA is known to recognize and bind to compounds containing 1,2- and 1,3-diol residues via the formation of a boronate ester [Wang et al., Curr. Org. Chem. 2002, 6, 1285-1317]. At aqueous conditions the boronate ester is a dynamic complex. […] In order to achieve this goal, a variety of commercially available azido substituted diols were tested for their ability to complex with PBA. […] In addition, the effect of azide group on the binding with PBA is unknown. Therefore, 4 commercially available azido diols (FIGS. 16A to 16D) were selected for testing based on their diverse structures. These compounds include azido-substituted monosaccharides (A and C), disaccharide (B), oligosaccharide (C), adenosine (D) and dopamine (E). The complexation between 4-carboxyphenylboronic acid and above materials was evaluated using ^11B NMR (FIG. 16, Table 1).
The chemical shift of boron in PBA changes when it is complexed with a diol. […] Therefore, the efficiency of complexation was estimated by monitoring the ratio of these two peaks. The effect of pH on complexation and structure of diols was studied.

[2] = 11B NMR complexing efficiency with 4NBA; type: physicochemical; details: for Diol-PBA Complex %: 4NBA, pH 8.5, PBA:Diol 1:1, acetonitrile/PBS, room temperature; for degree of complexation with 4NBA: pH and equivalence not stated
Description: (§1) Direct complexation of DP3-Insulin was carried out at an aqueous/organic 2/1 v/v solution in order to enable co-solubility with hydrophobic phenylboronic acids. Equal molar quantities of 4NBA and DP3-Insulin (0.5 mM) were dissolved in 2:1 acetonitrile:PBS and then the pH was modified to 7.5 or 8.5 by adding calculated amount of concentrated NaOH solution. The obtained complex was immediately frozen in liquid nitrogen and then freeze dried to generate a white solid. Similarly, selected diols (glucose, fructose, 4EC, 2HA, Azido-6-glactose, DP1-peptide and DP3-peptide) were formulated via the direct method. In order to validate formation of a complex 4NBA-diols, 1TBA-solids obtained by the direct method, as well as, their organic/aqueous solutions (prior to freeze drying) were analyzed with ^11B NMR and via FTIR.
(§2) 1TBA and 4NBA complexing efficiency with selected diols was measured in similar conditions but at a mixture of acetonitrile/PBS 2:1, according to the direct formulation procedure. Solid PBA-DIOL complexes were evaluated in DMSO. Data were analyzed with VNMR 6.1c software. Chemical shifts are reported in parts per million (ppm) on the δ scale.

[3] = 11B NMR complexing efficiency with 1TBA; type: physicochemical
Description: as §1, §2

[4] = Solubility of hydrophobic PBA as function of glucose or fructose concentration; type: physicochemical; details: PBS with 0-1000 mg/dL glucose or fructose, 6 hours, RT
Description: FIGS. 19A and 19B are graphs showing hydrophobic PBAs (1TBA, 4DBA and 4NBA) tested as a function of glucose (A) and fructose (B) concentrations in PBS. 10 mg of solid, hydrophobic PBA were dispersed in […] of phosphate buffer saline containing various concentrations of glucose and fructose; samples were mixed for 6 hours at room temperature, centrifuged, and aliquots were quantified against a calibration curve using reverse phase HPLC.
2.14. Solubility of Hydrophobic PBA as Function of Glucose or Fructose Concentration. 10 mg of Hydrophobic PBA (4DBA, 1TBA and 4NBA) were suspended in 40 ml vials containing phosphate buffer saline with various concentrations of glucose or fructose (0-1000 mg/dL); samples were mixed for 6 hours at RT. The solid suspension was centrifuged and aliquots were evaluated for PBA concentration. Analytical HPLC (Agilent 1200) was used to analyze samples. 2.15 Diol-Insulin Analogs PBA Affinity Test

[5] = 11B NMR stability of 4NBA:diol complexes in phosphate buffer; details: suspended in PBS, after 24 hr, pH 7.4, 37° C.
Description: FIG. 18 is a graph showing ^11B NMR analysis for the stability of 4NBA:diol complexes at phosphate buffer, 0.1 M, pH 7.4, 37° C. […] Solids were then separated via centrifugation and freeze dried. Samples were dissolved in DMSO-d^6 at a concentration of 10 mM and were tested at room temperature.
Complexation of DP3-Insulin with PBA was studied with ^11B NMR between 4NBA, 1TBA and selected diols (Table 2).

[6] = traditional phenylboronic acid; cited from earlier work
[7] = in vivo; cited from earlier work
[8] = pH 7.4, PBA:Diol 1:2, PBA 10 mM
[9] = pH 8.5, PBA:Diol 1:2, PBA 10 mM
[10] = pH 7.4, PBA:Diol 1:10, PBA 10 mM
[11] = pH 7.4, PBA:Diol 1:1, PBA 10 mM

Compound: COc1ccc(CN(C2CCCCC2)S(=O)(=O)c2ccc(B(O)O)cc2)cc1 [4NBA, 4-(N-cyclohexyl-N-(4-methoxybenzyl)sulfamoyl)phenylboronic acid]
solubility and glucose response range [4]: low solubility and response range within expected diabetic glucose levels

Compound: [N-]=[N+]=NC[C@@H](O)[C@H](O)[C@H](O)[C@@H](O)C=O [6-azido-6-deoxy-D-galactose]
Complex % [1, 8]: 17.6%
Complex % [1, 9]: 74.9%

Compound: [N-]=[N+]=Nc1nc2c(N)ncnc2n1[C@@H]1O[C@H](CO)[C@@H](O)[C@H]1O [8-Azido-Adenoside]
Complex % [1, 8]: 47.6%
Complex % ([1]; pH 7.4, PBA:Diol 1:2, PBA 10 mM, listed as D): 48%
Complex % [1, 9]: 61.6%

Compound: O=C(CO)[C@@H](O)[C@H](O)[C@H](O)CO [Frucrose]
complexed form remaining [5]: above 50%
degree of complexation with 4NBA [2]: ~100%
Complex % [1, 11]: 27.4%
Complex % [1, 8]: 34.9%
Complex % ([1]; pH 7.4, PBA:Diol 1:2, PBA 10 mM, listed as Fructose): 35%
Complex % [1, 10]: 44.9%
Complex % [1, 9]: 67.3%

Compound: OB(O)c1ccccc1 [phenylboronic acid]
pKa [6]: approximately 8.9

Compound: Lispro: fast acting insulin where B29 lysine and B28 proline have been switched
duration of action [7]: 4 to 6 h
onset time [7]: 5 to 15 min
peak action [7]: 30 to 90 min

Compound: glargine
time basal level of insulin is maintained [7]: up to 24 hours

Now from value to compound:

Complex % [1, 8]: 4.0%
Complex % [1, 9]: 8.3%
Compound: [N-]=[N+]=N[C@@H]1O[C@H](CO)[C@@H](O[C@@H]2O[C@H](CO)[C@H](O)[C@H](O)[C@H]2O)[C@H](O)[C@H]1O [1-Azido-1-deoxy-beta-D-lactopyranoside]

Diol-PBA Complex % [2]: 87%
Diol-PBA Complex % ([3]; 1TBA, pH 8.5, PBA:Diol 1:1, acetonitrile/PBS, room temperature): 75%
complexation ratio ([3]; pH of 7.5, PBA not specified (1TBA and 4NBA named)): 10%
Compound: CCc1ccc(O)c(O)c1 [4EC]

Complex % [1, 8]: 4.2%
Complex % [1, 9]: 22.5%
Compound: [N-]=[N+]=N[C@H]1O[C@H](CO)[C@@H](O)[C@H](O)[C@@H]1O [Alpha-D-Mannopyranosyl azide]

Complex % [1, 8]: 38.7%
Complex % ([1]; pH 7.4, PBA:Diol 1:2, PBA 10 mM, listed as E): 39%
Complex % [1, 10]: 58.1%
Complex % [1, 9]: 100.0%
Compound: NCCc1ccc(O)c(O)c1 [Dopamine]

complexed form remaining [5]: less than 10%
degree of complexation with 4NBA [2]: 74%
Complex % [1, 11]: 4.0%
Complex % [1, 8]: 11.0%
Complex % ([1]; pH 7.4, PBA:Diol 1:2, PBA 10 mM, listed as glucose): 11%
Complex % [1, 10]: 22.8%
Complex % [1, 9]: 49.4%
Complex % ([1]; pH 8.5, PBA:Diol 1:2, PBA 10 mM, listed as glucose): up to 50%
Compound: O=C[C@H](O)[C@@H](O)[C@H](O)[C@H](O)CO [Glucose]

Complex % [1, 11]: 7.5%
Complex % ([1]; pH 8.5, PBA:Diol 1:1, PBA 10 mM): 4.0%
Compound: Maltoheptaose

Diol-PBA Complex % [2]: 91%
Compound: azido-pentanoic-DOPA-GLY-DOPA-GLY-DOPA-GLY-NH2 [DP3-peptides]
